Results as given in ChEMBL document CHEMBL1255274, “Microdialysis study of imipenem distribution in the peritoneal fluid of rats with experimental acute pancreatitis” (Antimicrob Agents Chemother, 2008).

What was measured:
Format in all cases: ADME, organism-based
Parameters in all cases: dose 30 mg/kg, route intravenous
[1] = Cmax in pancreatitis Sprague-Dawley rat blood at 30 mg/kg, iv after 30 mins
[2] = Cmax in pancreatitis Sprague-Dawley rat peritoneal fluid at 30 mg/kg, iv after 30 mins
[3] = Half life pancreatitis Sprague-Dawley rat peritoneal fluid at 30 mg/kg, iv after 30 mins
[4] = Tmax in pancreatitis Sprague-Dawley rat blood at 30 mg/kg, iv after 30 mins
[5] = Selectivity ratio of AUC in pancreatitis Sprague-Dawley rat peritoneal fluid to AUC in pancreatitis Sprague-Dawley rat blood at 30 mg/kg, iv after 30 mins; conditions: read-out: Ratio AUC
[6] = Half life in pancreatitis Sprague-Dawley rat blood at 30 mg/kg, iv after 30 mins
[7] = Clearance in pancreatitis Sprague-Dawley rat blood at 30 mg/kg, iv after 30 mins
[8] = Tmax in pancreatitis Sprague-Dawley rat peritoneal fluid at 30 mg/kg, iv after 30 mins

Cmax [1]: 53.9 µg/mL
Cmax [2]: 51.8 µg/mL
half-life [3]: 17.6 min
Tmax [4]: 35 min
half-life [6]: 17.3 min
clearance [7]: 17 mL/min/kg
Tmax [8]: 36.7 min
SMILES: C[C@@H](O)[C@H]1C(=O)N2C(C(=O)O)=C(SCCN=CN)C[C@H]12 [IMIPENEM ANHYDROUS]
Kp at 0.5 h [5]: 1.08
